Experiment [1] concerns the target T1, human toll like receptor 7 (hTLR7) (Homo sapiens, UniProt Q9NYK1).
T1 construct: host or cells: HEK293 (HEK-Blue hTLR7)
T1 sequence (Q9NYK1 27-1049): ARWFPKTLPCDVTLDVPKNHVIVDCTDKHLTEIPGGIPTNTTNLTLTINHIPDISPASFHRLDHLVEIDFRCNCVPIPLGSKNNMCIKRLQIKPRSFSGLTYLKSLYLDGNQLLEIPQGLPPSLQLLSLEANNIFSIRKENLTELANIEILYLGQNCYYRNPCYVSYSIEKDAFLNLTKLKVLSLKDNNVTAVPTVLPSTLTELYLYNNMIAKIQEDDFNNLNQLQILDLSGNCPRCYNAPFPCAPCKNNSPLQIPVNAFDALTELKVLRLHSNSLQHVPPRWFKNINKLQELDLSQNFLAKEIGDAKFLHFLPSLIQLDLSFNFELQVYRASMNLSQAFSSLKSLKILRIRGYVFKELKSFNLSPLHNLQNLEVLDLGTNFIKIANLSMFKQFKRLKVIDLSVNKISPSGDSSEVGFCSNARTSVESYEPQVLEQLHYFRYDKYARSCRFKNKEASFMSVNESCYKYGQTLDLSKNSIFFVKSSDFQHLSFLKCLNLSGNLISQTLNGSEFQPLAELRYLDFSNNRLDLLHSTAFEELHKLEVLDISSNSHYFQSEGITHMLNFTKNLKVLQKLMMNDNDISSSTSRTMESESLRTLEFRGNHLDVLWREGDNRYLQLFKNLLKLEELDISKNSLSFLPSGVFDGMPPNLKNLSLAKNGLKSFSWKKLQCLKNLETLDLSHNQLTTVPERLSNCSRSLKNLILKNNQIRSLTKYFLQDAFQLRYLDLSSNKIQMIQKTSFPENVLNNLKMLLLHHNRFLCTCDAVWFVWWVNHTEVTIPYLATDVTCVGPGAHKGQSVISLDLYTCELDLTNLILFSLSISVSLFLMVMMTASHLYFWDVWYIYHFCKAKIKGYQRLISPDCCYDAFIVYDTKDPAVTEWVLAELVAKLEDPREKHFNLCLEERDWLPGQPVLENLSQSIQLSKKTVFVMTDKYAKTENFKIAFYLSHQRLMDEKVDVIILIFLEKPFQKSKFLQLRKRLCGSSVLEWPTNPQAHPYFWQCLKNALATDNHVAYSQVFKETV
Briefly: hTLR7 in-vitro functional assay (HEK-Blue hTLR7 SEAP reporter). The format is cell-based. Particulars: HEK-Blue hTLR7 cells, overnight incubation. The text has this: (§1) To determine the ability of test compounds to activate the human toll like receptor 7 (hTLR7) or human toll like receptor 8 (hTLR8), cell-based reporter systems were utilized. HEK293 cells stably overexpressing either hTLR7 or hTLR8 along with a reporter gene containing an optimized secreted embryonic alkaline phosphatase gene (SEAP), under the control of the IFN-b minimal promoter fused to five NF-kB and AP-1-binding sites, were obtained from Invivogen (HEK-Blue™ hTLR7, cat #Hkb-htlr7; HEK-Blue™ hTLR8, cat #Hkb-htlr8). Stimulation of hTLR7 or hTLR8 in these cells activates NF-kB and AP-1 and induces the production of SEAP which can be quantified using an alkaline phosphatase detection reagent.
(§2) On day one of the assay, compounds were prepared using 11-point half-log serial dilutions from a 10 mM DMSO stock solution and 50 nL was spotted into 384-well plates (PerkinElmer, cat #6007480). Positive and negative controls were also spotted within the assay plate and were used to determine percent effect during the analysis process. After resuspension in DMEM assay media containing FBS heat inactivated (10%), Glutamax (2 mM) and Penicillin/Streptomycin, 10,000 cells/20 ul/well were added to previously prepared compound plates. Plates were incubated overnight (16-20 hrs) at 37° C. in a 5% CO2 environment. Prewetted Microclime lids (Labcyte, LLS-0310) were used to prevent evaporation. On day two of the assay, QUANTI-Blue™ detection reagent was prepared by reconstituting QUANTI-Blue™ powder (InvivoGen, Rep-qb1) with 100 ml of sterile water and allowed to equilibrate to 37° C. for 15 minutes. 20 ul of QUANTI-Blue™ detection reagent was added to each well and plates were incubated at room temperature for 180 min. At the end of the incubation, plates were read on an Envision (Perkin Elmer) plate reader capturing absorbance at 650 nm.
(§3) Using Positive (tool compound) and Negative (DMSO) controls, the percent (%) effect was calculated for each sample using the following equation: […]
(§4) The % effect at each concentration of compound was calculated utilizing the ABase software suite (IBDS) and was relative to the amount of SEAP produced in the positive and negative control wells contained within each assay plate. The concentrations and % effect values for test compounds were fit using a 4-parameter logistic model in ABase and the concentration of compound that produced 50% response (EC50) was calculated.

In experiment [2] the target is T2, human toll like receptor 8 (hTLR8) (Homo sapiens, UniProt Q9NR97).
T2 construct: host or cells: HEK293 (HEK-Blue hTLR8)
T2 sequence (Q9NR97 27-1041): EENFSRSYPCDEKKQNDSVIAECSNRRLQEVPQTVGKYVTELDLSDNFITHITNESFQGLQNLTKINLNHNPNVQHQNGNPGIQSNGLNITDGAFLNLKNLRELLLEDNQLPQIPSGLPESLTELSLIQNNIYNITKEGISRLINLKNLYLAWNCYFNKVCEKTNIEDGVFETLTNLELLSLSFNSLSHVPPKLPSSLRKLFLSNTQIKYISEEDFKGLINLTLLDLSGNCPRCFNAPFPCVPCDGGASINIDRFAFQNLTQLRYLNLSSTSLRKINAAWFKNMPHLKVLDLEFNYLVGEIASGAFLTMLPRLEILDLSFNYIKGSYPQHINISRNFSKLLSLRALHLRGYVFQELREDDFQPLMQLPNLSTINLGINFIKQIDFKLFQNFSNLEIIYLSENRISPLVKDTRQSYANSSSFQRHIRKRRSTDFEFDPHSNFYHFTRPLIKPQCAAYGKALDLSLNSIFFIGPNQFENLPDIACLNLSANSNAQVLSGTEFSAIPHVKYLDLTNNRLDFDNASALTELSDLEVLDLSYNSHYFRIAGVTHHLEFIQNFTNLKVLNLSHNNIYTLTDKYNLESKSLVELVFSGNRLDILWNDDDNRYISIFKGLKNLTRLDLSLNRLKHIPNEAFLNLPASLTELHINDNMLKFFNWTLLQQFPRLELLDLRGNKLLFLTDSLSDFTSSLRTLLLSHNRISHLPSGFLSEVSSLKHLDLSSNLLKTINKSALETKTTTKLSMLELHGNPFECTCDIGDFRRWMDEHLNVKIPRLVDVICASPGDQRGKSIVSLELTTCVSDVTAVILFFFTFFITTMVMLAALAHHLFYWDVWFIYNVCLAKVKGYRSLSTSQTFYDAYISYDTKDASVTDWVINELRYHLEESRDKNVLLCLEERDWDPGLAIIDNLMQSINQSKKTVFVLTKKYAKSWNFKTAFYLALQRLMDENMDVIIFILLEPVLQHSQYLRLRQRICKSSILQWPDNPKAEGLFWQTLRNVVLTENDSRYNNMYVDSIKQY
Briefly: hTLR8 in-vitro functional assay (HEK-Blue hTLR8 SEAP reporter). Type of experiment: cell-based. Particulars: HEK-Blue hTLR8 cells, overnight incubation.
Text: as §1, §2, §3, §4

The values below come from patent US20250135006A1, “AMPHIPHILIC TLR7/8 ADJUVANTS AND USES THEREOF” (Pfizer Inc., priority 2023, published 2025).

What is called EC50 is the concentration giving half of the maximal effect.

In the case of `CCCCc1nc2c(N)nc3cc(CCCN4CCN(CCCOCCOCCOCCOCCOCCOCCOCCOCCOCCOCCOCCOCCOCCOCCOCCOCCOCCOCCOCCOCCNC(=O)O[C@H]5CC[C@@]6(C)C(=CC[C@H]7[C@@H]8CC[C@H]([C@H](C)CCCC(C)C)[C@@]8(C)CC[C@@H]76)C5)CC4)ccc3c2n1CC(C)(CO)CO` [Compound 7, (3beta)-cholest-5-en-3-yl {63-[4-(3-{4-amino-2-butyl-1-[3-hydroxy-2-(hydroxymethyl)-2-methylpropyl]-1H-imidazo[4,5-c]quinolin-7-yl}propyl)piperazin-1-yl]-3,6,9,12,15,18,21,24,27,30,33,36,39,42,45,48,51,54,57,60-icosaoxatrihexacont-1-yl}carbamate], the EC50 came to 140 nM in experiment [1] and 14400 nM in experiment [2].

For the compound `CCOCc1nc2c(N)nc3cc(CCCN4CCN(C(=O)CCOCCOCCOCCOCCOCCOCCOCCOCCOCCOCCOCCOCCOCCOCCOCCOCCOCCOCCOCCOCCOCCOCCOCCOCCOCCOCCOCCOCCOCCOCCOCCOCCOCCOCCOCCOCCNC(=O)CCOCCOCCOCCOCCNC(=O)O[C@H]5CC[C@@]6(C)C(=CC[C@H]7[C@@H]8CC[C@H]([C@H](C)CCCC(C)C)[C@@]8(C)CC[C@@H]76)C5)CC4)ccc3c2n1CC(C)(CO)CO` [Compound 4, (3beta)-cholest-5-en-3-yl {127-[4-(3-{4-amino-2-(ethoxymethyl)-1-[3-hydroxy-2-(hydroxymethyl)-2-methylpropyl]-1H-imidazo[4,5-c]quinolin-7-yl}propyl)piperazin-1-yl]-15,127-dioxo-3,6,9,12,19,22,25,28,31,34,37,40,43,46,49,52,55,58,61,64,67,70,73,76,79,82,85,88,91,94,97,100,103,106,109,112,115,118,121,124-tetracontaoxa-16-azaheptacosahect-1-yl}carbamate], the EC50 in experiment [1] came to 60 nM; in experiment [2], 1750 nM.

Consider `CCCCc1nc2c(N)nc3cc(CCCN4CCN(CCCOCCOCCNC(=O)O[C@H]5CC[C@@]6(C)C(=CC[C@H]7[C@@H]8CC[C@H]([C@H](C)CCCC(C)C)[C@@]8(C)CC[C@@H]76)C5)CC4)ccc3c2n1CC(C)(CO)CO` [Compound 18, (20R)-cholest-5-en-3beta-yl [2-(2-{3-[4-(3-{4-amino-2-butyl-1-[3-hydroxy-2-(hydroxymethyl)-2-methylpropyl]-1H-imidazo[4,5-c]quinolin-7-yl}propyl)piperazin-1-yl]propoxy}ethoxy)ethyl]carbamate], for which the values for the EC50 in experiment [1] and in experiment [2] were 288 nM and 9900 nM, respectively.

As for `CCCCc1nc2c(N)nc3cc(CCCN4CCN(CCCOCCOCCOCCOCCOCCOCCOCCOCCOCCOCCOCCOCCOCCOCCOCCOCCOCCOCCOCCOCCOCCOCCOCCOCCNC(=O)O[C@H]5CC[C@@]6(C)C(=CC[C@H]7[C@@H]8CC[C@H]([C@H](C)CCCC(C)C)[C@@]8(C)CC[C@@H]76)C5)CC4)ccc3c2n1CC(C)(CO)CO` [Compound 16, (20R)-cholest-5-en-3beta-yl {75-[4-(3-{4-amino-2-butyl-1-[3-hydroxy-2-(hydroxymethyl)-2-methylpropyl]-1H-imidazo[4,5-c]quinolin-7-yl}propyl)piperazin-1-yl]-3,6,9,12,15,18,21,24,27,30,33,36,39,42,45,48,51,54,57,60,63,66,69,72-tetracosaoxapentaheptacontan-1-yl}carbamate], the EC50 is 278 nM in experiment [1] and greater than 25000 nM in experiment [2].

Consider `CCCCc1nc2c(N)nc3cc(CCCN4CCN(CCCOCCOCCOCCOCCOCCOCCOCCOCCOCCOCCOCCOCCNC(=O)O[C@H]5CC[C@@]6(C)C(=CC[C@H]7[C@@H]8CC[C@H]([C@H](C)CCCC(C)C)[C@@]8(C)CC[C@@H]76)C5)CC4)ccc3c2n1CC(C)(CO)CO` [Compound 21, (20R)-cholest-5-en-3beta-yl {39-[4-(3-{4-amino-2-butyl-1-[3-hydroxy-2-(hydroxymethyl)-2-methylpropyl]-1H-imidazo[4,5-c]quinolin-7-yl}propyl)piperazin-1-yl]-3,6,9,12,15,18,21,24,27,30,33,36-dodecaoxanonatriacontan-1-yl}carbamate], for which the EC50 in experiment [1] is 533 nM; in experiment [2] it was greater than 25000 nM.

Regarding `CCOCc1nc2c(N)nc3cc(CCCN4CCN(C(=O)CCOCCOCCOCCOCCOCCOCCOCCOCCOCCOCCOCCOCCNC(=O)CCOCCOCCOCCOCCNC(=O)O[C@H]5CC[C@@]6(C)C(=CC[C@H]7[C@@H]8CC[C@H]([C@H](C)CCCC(C)C)[C@@]8(C)CC[C@@H]76)C5)CC4)ccc3c2n1CC(C)(CO)CO` [Compound 13, (3beta,20R)-cholest-5-en-3-yl {55-[4-(3-{4-amino-2-(ethoxymethyl)-1-[3-hydroxy-2-(hydroxymethyl)-2-methylpropyl]-1H-imidazo[4,5-c]quinolin-7-yl}propyl)piperazin-1-yl]-15,55-dioxo-3,6,9,12,19,22,25,28,31,34,37,40,43,46,49,52-hexadecaoxa-16-azapentapentacont-1-yl}carbamate], the EC50 was determined as 223 nM in experiment [1] and 3330 nM in experiment [2].
